# Results from patent US8518466B2 (Shenzhen Hazardous Waste Treatment Station Ltd., priority 2008, dated 2013).
# Test system: weaned piglet
# Details: piglets
# Method: According to the weight, sex, litter, the 60 weaned piglets were randomly divided into five groups. Group 1 is the control group using corn-soybean meal-dray whey powder diet with adding 150 mg/kg of basic copper chloride but without adding selenium. Group 2 and 3 are testing group using corn-soybean meal-dray whey powder diet with adding 0.3 mg/kg and 0.5 mg/kg of sodium selenite respectively, and adding 150 mg/kg of basic copper chloride. […] The testing period is 35 days, including 7 days of pre-test period and 28 days of formal test period.
structure (smiles),measurement,setting,value
O=[Se](O)O [sodium selenite],selenium level of kidney compared with control group,0.3 and 0.5 mg/kg in diet,significantly higher
same,selenium level of liver compared with control group,0.3 and 0.5 mg/kg in diet,significantly higher
same,copper content in liver among groups,all groups,almost the same
